Legend:
[1] = biological target: T1, AAK1 (amino acids T27-A365) (Homo sapiens, UniProt Q2M2I8); experiment: AAK1 pSENs assay; format: biochemical; conditions: class symbols; read-out: AAK1 pSENs: EIC50
T1 construct: against AAK1 (amino acids T27-A365); 6His (N, cleaved yes)
Outline: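 Biotinylated, tag-free AAK1 T27-A365 expressed in E. coli was held at 20 nM in enzyme solution (HEPES pH 7.5, 10 mM MgCl2, DTT, EGTA, Brij35, BSA) and preincubated with compound for 15 min at 25 °C. The reaction was started with an equal volume of substrate solution containing 30 uM AQT0759 peptide and 70 uM ATP. IC50 determined.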

[2] = biological target: T2, GAK (amino acids Q25-N335) (Homo sapiens, UniProt O14976); experiment: GAK pSENs assay; format: biochemical; conditions: class symbols; read-out: GAK pSENs:IC50
T2 construct: against GAK (amino acids Q25-N335); 6His (N, cleaved yes)
T2 sequence (O14976 25-335): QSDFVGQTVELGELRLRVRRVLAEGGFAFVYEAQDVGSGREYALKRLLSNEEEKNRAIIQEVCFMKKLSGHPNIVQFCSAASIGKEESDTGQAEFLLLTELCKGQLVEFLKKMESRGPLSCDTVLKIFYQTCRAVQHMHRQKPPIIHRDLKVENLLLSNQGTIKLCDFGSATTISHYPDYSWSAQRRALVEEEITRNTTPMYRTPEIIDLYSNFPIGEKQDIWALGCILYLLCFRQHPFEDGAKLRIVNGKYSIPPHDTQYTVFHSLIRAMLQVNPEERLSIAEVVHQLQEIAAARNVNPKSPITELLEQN
Description: The recombinant proteins were independently expressed in Escherichia coli BL21(DE3) cells cultured in Luria-Bertani (LB) medium until OD600 reached 0.6-0.8, then cooled to 15° C. and supplemented with 0.5 mM isopropyl 1-thio-D-galactopyranoside (IPTG) induce protein expression 16 h. Cells were harvested and resuspended in lysis buffer (50 mM HEPES pH 7.5, 500 mM NaCl, 5 mM imidazole, 5% glycerol, 0.5 mM Tris (2-carboxyethyl) phosphine (TCEP), cOmplete Protease Inhibitor Tablet (Roche)) and lysed by microfludics high pressure homogenizer (UH-06, Union-Biotech). Proteins were purified using […] chromatography (His FF column, Bestchrom) and eluted stepwise in binding buffer with 20-300 mM imidazole. Removal of the hexahistidine tag was performed at 4° C. overnight using recombinant TEV protease and reacted with BirA to obtain the corresponding biotinylated-AAK1, BIKE or GAK proteins. Further separated in the reverse Strep column (Strep-Tactin® XT, IBA). The Biotin elution sample was collected containing untagged biotinylated protein was then purified by Ion-exchange chromatography (Mono Q 10/100 GL, Cytiva) and Size-exclusion chromatography (HiLoad 16/600 Superdex 200 pg, Cytiva). The pure protein was stored in a storage buffer 50 mM HEPES (pH 7.5), 300 mM NaCl, 5% glycerol at −80° C. Protein were characterized by SDS-PAGE, LC-MS and aSEC.
This example describes one illustrative method for determining the IC50 of the compounds of the present invention against GAK (amino acids Q25-N335).

[3] = biological target: T3, BIKE (amino acids S38-E345) (K320A, K321A) (Homo sapiens, UniProt Q9NSY1, K320A/K321A); experiment: BIKE pSENs assay; format: biochemical; conditions: class symbols; read-out: BIKE pSENs: IC50
T3 construct: against BIKE (amino acids S38-E345) (K320A, K321A); 6His (N, cleaved yes)
Outline: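 E. coli-expressed, biotinylated, tag-free BIKE at 20 nM in HEPES pH 7.5 buffer with 10 mM MgCl2 preincubated with compound 15 min at 25° C. Reaction started with 30 uM AQT0759 sensor peptide and 40 uM ATP (concentrations before 1:1 mixing).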

AAK1 = AAK1 (Homo sapiens, UniProt Q2M2I8); experiment: pAP2M1 cell-based assay (in-cell Western); conditions: Hela cells co-transfected with AP2M1 and AAK1, 3 hr treatment; class symbols; read-out: AAK1 In-cell Western: IC50
Excerpt: pAP2M1 Cell-Based Assay (in-Cell Western):
The plate was read on Licor Odyssey CLx imaging system (LICOR) to acquire fluorescence intensity at 700 channel and 800 channel.
Data analysis: Fluorescence intensity at 700 channel served as internal standard and 800 channel were normalized with 700 channel.

T1 sequence (Q2M2I8 27-365): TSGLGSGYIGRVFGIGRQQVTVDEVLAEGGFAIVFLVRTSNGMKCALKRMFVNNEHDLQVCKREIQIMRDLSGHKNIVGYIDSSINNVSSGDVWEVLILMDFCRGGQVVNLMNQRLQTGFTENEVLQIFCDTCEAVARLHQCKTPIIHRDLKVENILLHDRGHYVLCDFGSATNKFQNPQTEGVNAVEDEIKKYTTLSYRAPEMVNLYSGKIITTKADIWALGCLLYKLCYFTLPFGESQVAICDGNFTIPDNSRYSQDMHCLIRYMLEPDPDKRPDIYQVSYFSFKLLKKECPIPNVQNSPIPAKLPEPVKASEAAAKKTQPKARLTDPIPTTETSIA
T3 sequence (Q9NSY1 38-345 K320A/K321A): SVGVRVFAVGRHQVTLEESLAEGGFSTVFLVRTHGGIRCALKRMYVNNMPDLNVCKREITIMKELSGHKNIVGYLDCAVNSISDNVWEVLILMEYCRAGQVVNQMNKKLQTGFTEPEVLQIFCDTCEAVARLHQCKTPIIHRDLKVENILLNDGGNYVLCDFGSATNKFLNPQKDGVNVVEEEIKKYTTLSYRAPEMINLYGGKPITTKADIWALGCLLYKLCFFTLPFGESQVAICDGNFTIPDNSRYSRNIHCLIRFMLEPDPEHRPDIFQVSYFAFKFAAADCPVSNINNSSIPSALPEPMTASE
AAK1, sequence (Q2M2I8 whole entry): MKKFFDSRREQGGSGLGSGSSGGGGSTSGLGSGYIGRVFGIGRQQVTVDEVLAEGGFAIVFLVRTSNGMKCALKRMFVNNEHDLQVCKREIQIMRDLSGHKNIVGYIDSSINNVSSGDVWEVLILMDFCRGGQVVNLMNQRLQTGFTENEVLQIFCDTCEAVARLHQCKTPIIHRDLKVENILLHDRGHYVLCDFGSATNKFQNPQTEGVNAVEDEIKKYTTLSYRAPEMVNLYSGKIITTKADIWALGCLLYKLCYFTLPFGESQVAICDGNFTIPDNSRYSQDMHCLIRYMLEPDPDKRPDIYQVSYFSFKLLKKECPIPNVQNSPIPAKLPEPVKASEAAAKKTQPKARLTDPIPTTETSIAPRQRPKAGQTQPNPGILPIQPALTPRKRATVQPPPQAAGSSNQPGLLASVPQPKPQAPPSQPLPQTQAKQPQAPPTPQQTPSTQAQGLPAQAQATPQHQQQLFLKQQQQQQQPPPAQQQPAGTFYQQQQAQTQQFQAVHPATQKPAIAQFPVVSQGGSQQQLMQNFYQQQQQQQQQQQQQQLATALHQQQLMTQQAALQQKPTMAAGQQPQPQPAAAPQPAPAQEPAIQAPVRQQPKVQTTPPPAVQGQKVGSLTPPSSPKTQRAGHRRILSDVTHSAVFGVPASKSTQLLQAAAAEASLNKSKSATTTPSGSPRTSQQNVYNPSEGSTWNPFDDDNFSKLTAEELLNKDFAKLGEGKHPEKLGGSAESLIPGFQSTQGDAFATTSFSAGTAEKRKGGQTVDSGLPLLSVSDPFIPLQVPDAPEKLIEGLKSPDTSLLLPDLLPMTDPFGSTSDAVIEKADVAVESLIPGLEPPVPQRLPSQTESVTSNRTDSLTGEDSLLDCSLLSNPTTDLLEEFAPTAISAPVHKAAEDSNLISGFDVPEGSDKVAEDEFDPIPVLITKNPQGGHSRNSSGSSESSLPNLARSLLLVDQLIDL

Compound | IC50 [1] [nM] | IC50 [2] [nM] | IC50 [3] [nM] | IC50 (AAK1) [nM]
Clc1cnn2ccc(N3CCNCC3)nc12 [Compound I-104, 3-chloro-5-piperazin-1-yl-pyrazolo[1,5-a]pyrimidine] | > 1500 | > 1500 | > 1500 | > 1500
CC1(OC(=O)N2CCN(c3ccn4ncc(-c5cccc(C(N)=O)c5)c4n3)CC2)COC1 [Compound I-4, (3-methyloxetan-3-yl)-4-[3-(3-carbamoylphenyl)pyrazolo[1,5-a]pyrimidin-5-yl]piperazine-1-carboxylate] | 51 to 150 | 501 to 1500 | 501 to 1500 | 501 to 1500
CN1C[C@@H](OC(=O)N2CCN(c3ccn4nccc4n3)CC2)CC1=O [Compound I-97, [(3S)-1-methyl-5-oxo-pyrrolidin-3-yl]-4-pyrazolo[1,5-a]pyrimidin-5-ylpiperazine-1-carboxylate] | > 1500 | > 1500 | > 1500 | > 1500
CC(C)(C)OC(=O)NCCNc1nc2c(-c3cccnc3OC3CC3)cnn2cc1F [Compound I-124, tert-butyl N-[2-[[3-[2-(cyclopropoxy)-3-pyridyl]-6-fluoro-pyrazolo[1,5-a]pyrimidin-5-yl]amino]ethyl]carbamate] | 51 to 150 | 501 to 1500 | 501 to 1500 | 501 to 1500
CC(C)(C)OC(=O)N1CCN(c2ccn3ncc(Cl)c3n2)CC1 [Compound I-100, tert-butyl 4-(3-chloropyrazolo[1,5-a]pyrimidin-5-yl)piperazine-1-carboxylate] | 501 to 1500 | > 1500 | > 1500 | > 1500
